# Target: T1, human CCR6 (Homo sapiens, UniProt P51684)
# T1 construct: expressed in transfected cells; host or cells: HEK-293
# T1 sequence (P51684 1-374): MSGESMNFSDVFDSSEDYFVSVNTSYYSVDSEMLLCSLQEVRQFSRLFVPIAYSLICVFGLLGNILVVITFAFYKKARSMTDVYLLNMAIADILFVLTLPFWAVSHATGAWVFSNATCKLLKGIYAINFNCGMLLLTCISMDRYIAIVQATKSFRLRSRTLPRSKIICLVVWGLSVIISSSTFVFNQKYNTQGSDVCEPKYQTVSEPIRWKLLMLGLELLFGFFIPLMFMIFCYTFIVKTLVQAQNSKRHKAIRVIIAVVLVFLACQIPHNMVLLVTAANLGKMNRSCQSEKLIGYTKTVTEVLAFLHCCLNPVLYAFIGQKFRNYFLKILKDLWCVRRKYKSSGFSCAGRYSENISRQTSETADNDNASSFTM
# Test: FLIPR assay: inhibition of CCL20-induced calcium signal in HEK-293 cells expressing human CCR6
# Assay type: cell-based
# Conditions: engineered HEK-293 cells expressing human CCR6; agonist CCL20 10 nM; 30 min preincubation; Fluo-8-AM; mean values if determined several times
# Protocol: FLIPR assay: The bioactivity of compounds is tested in a fluorometric imaging plate reader (FLIPR: Molecular Devices) using engineered HEK-293 cells expressing the human CCR6 (GenBank: AY242126). Frozen cells are plated on Poly-L-Lysine precoated 384-well plates 2 days prior to bioassay in DMEM medium supplemented with 10% FCS and 1% Penicillin-Streptomycin. At the day of bioassay, cell supernatant is discarded and cells are dye loaded for 30 minutes at room temperature in the dark with Fluo-8-AM (Focus Biomolecules) in Hanks Balanced Salt Solution (Gibco), buffered with 20 mM Hepes at pH 6.75 and supplemented with 0.05% BSA. This buffer, but lacking the dye, is also used for washing and compound dilution steps (assay buffer). Cells are washed free of excess dye with a wash-station (Biotek), leaving 40 microliter of assay buffer at the end. Cells were incubated for 15 minutes at room temperature in the dark, before adding compounds. Stock solutions of test compounds are made up at a concentration of 10 mM in DMSO, and serially diluted first in DMSO and then transferred in assay buffer to concentrations required for inhibition dose response curves. After a 45 minute incubation period in assay buffer at room temperature, 10 microliters of each compound dilution are transferred from a compound plate to the plate containing the recombinant cells in the FLIPR instrument according to the manufacturer's instructions. After cells and compounds were preincubated for 30 minutes at room temperature in the dark, 10 microliter agonist CCL20 (Peprotech) at a final concentration of 10 nM is added, again using the FLIPR instrument. Changes in fluorescence are monitored before and after addition of the test compounds and agonist. Emission peak values above base level after CCL20 addition are exported after base line subtraction. The calculated IC50 values may fluctuate depending on the daily assay performance. Fluctuations of this kind are known to those skilled in the art. In the case where IC50 values have been determined several times for the same compound, mean values are given.
row,Structure (SMILES),IC50
1,"CC(C)c1ccc([C@](O)(c2cncc(-c3nc(C4CCNC(=O)C4)n(C(C)C)n3)c2)C2(C)CN(C)C2)cc1 (stereo partly drawn) [Example 46, 4-(5-{5-[(R)-(1,3-Dimethyl-azetidin-3-yl)-hydroxy-(4-isopropyl-phenyl)-methyl]-pyridin-3-yl}-2-isopropyl-2H-[1,2,4]triazol-3-yl)-piperidin-2-one]",0.161 µM
2,"CC(C)c1ccc([C@](O)(c2cncc(-c3nc(CC4(O)CCC4)n(C4CC4)n3)c2)C2(C)CN(C)C2)cc1 [Example 12, 1-(2-Cyclopropyl-5-{5-[(R)-(1,3-dimethyl-azetidin-3-yl)-hydroxy-(4-isopropyl-phenyl)-methyl]-pyridin-3-yl}-2H-[1,2,4]triazol-3-ylmethyl)-cyclobutanol]",0.114 µM
3,"CC(C)c1ccc([C@](O)(c2cncc(-c3nc(C4CCN(C(=O)CO)CC4)n(C(C)C)n3)c2)C2(C)CN(C)C2)cc1 [Example 44, 1-[4-(5-{5-[(R)-(1,3-Dimethyl-azetidin-3-yl)-hydroxy-(4-isopropyl-phenyl)-methyl]-pyridin-3-yl}-2-isopropyl-2H-[1,2,4]triazol-3-yl)-piperidin-1-yl]-2-hydroxy-ethanone]",0.199 µM
4,"CC(C)c1ccc([C@](O)(c2cncc(-c3nc(C4CCOCC4)n(C4CC4)n3)c2)C2(C)CN(C)C2)cc1 [Example 14, (R)-{5-[1-Cyclopropyl-5-(tetrahydro-pyran-4-yl)-1H-[1,2,4]triazol-3-yl]-pyridin-3-yl}-(1,3-dimethyl-azetidin-3-yl)-(4-isopropyl-phenyl)-methanol]",0.118 µM
5,"CN1CC(C)([C@](O)(c2ccc(Br)cc2)c2cncc(-c3nc(C4CCOCC4)n(C4CC4)n3)c2)C1 [Example 1, (R)-(4-Bromo-phenyl)-{5-[1-cyclopropyl-5-(tetrahydro-pyran-4-yl)-1H-[1,2,4]triazol-3-yl]-pyridin-3-yl}-(1,3-dimethyl-azetidin-3-yl)-methanol]",1.05 µM
6,"CC(=O)N1CCC(c2nc(-c3cncc([C@@](O)(c4ccc(C(C)C)cc4)C4(C)CN(C)C4)c3)nn2C2CC2)CC1 [Example 32, 1-[4-(2-Cyclopropyl-5-{5-[(R)-(1,3-dimethyl-azetidin-3-yl)-hydroxy-(4-isopropyl-phenyl)-methyl]-pyridin-3-yl}-2H-[1,2,4]triazol-3-yl)-piperidin-1-yl]-ethanone]",0.181 µM
7,"CC(C)c1ccc([C@](O)(c2cncc(-c3nc(C4CCOCC4)n(CCO)n3)c2)C2(C)CN(C)C2)cc1 [Example 17, 2-[3-{5-[(R)-(1,3-Dimethyl-azetidin-3-yl)-hydroxy-(4-isopropyl-phenyl)-methyl]-pyridin-3-yl}-5-(tetrahydro-pyran-4-yl)-[1,2,4]triazol-1-yl]-ethanol]",0.509 µM
8,"CC(C)c1ccc([C@](O)(c2cncc(-c3nc(C4CCOCC4)n(C)n3)c2)C2(C)CN(C)C2)cc1 [Example 16, (R)-(1,3-Dimethyl-azetidin-3-yl)-(4-isopropyl-phenyl)-{5-[1-methyl-5-(tetrahydro-pyran-4-yl)-1H-[1,2,4]triazol-3-yl]-pyridin-3-yl}-methanol]",0.221 µM
9,"CCc1ccc([C@](O)(c2cncc(-c3nc(C4CCOCC4)n(C4CC4)n3)c2)C2(C)CN(C)C2)cc1 [Example 6, (R)-{5-[1-Cyclopropyl-5-(tetrahydro-pyran-4-yl)-1H-[1,2,4]triazol-3-yl]-pyridin-3-yl}-(1,3-dimethyl-azetidin-3-yl)-(4-ethyl-phenyl)-methanol]",0.124 µM

# These reach a lower IC50. Values come first.
row,IC50,Structure (SMILES)
1,0.0399 µM,"CC(C)c1ccc([C@](O)(c2cncc(-c3nc(C4CCOCC4)n(C(C)(C)C)n3)c2)C2(C)CN(C)C2)cc1 [Example 21, (R)-{5-[1-tert-Butyl-5-(tetrahydro-pyran-4-yl)-1H-[1,2,4]triazol-3-yl]-pyridin-3-yl}-(1,3-dimethyl-azetidin-3-yl)-(4-isopropyl-phenyl)-methanol]"
2,0.0168 µM,"CC(C)c1ccc([C@](O)(c2cncc(-c3nc(C4CCOCC4)n(C4CCCCC4)n3)c2)C2(C)CN(C)C2)cc1 [Example 15, (R)-{5-[1-Cyclohexyl-5-(tetrahydro-pyran-4-yl)-1H-[1,2,4]triazol-3-yl]-pyridin-3-yl}-(1,3-dimethyl-azetidin-3-yl)-(4-isopropyl-phenyl)-methanol]"
3,0.0863 µM,"CC(C)c1ccc([C@](O)(c2cncc(-c3nc(C4(O)CCOCC4)n(C(C)C)n3)c2)C2(C)CN(C)C2)cc1 [Example 31, 4-(5-{5-[(R)-(1,3-Dimethyl-azetidin-3-yl)-hydroxy-(4-isopropyl-phenyl)-methyl]-pyridin-3-yl}-2-isopropyl-2H-[1,2,4]triazol-3-yl)-tetrahydro-pyran-4-ol]"
4,0.0766 µM,"CC(C)c1ccc([C@](O)(c2cnc(F)c(-c3nc([C@H]4CC[C@H](O)CC4)n(C4CC4)n3)c2)C2(C)CN(C)C2)cc1 [Example 39, 4-(2-Cyclopropyl-5-{5-[(R)-(1,3-dimethyl-azetidin-3-yl)-hydroxy-(4-isopropyl-phenyl)-methyl]-2-fluoro-pyridin-3-yl}-2H-[1,2,4]triazol-3-yl)-trans-cyclohexanol]"
5,0.0444 µM,"CCCc1ccc([C@](O)(c2cncc(-c3nc(C4CCOCC4)n(C4CC4)n3)c2)C2(C)CN(C)C2)cc1 [Example 7, (R)-{5-[1-Cyclopropyl-5-(tetrahydro-pyran-4-yl)-1H-[1,2,4]triazol-3-yl]-pyridin-3-yl}-(1,3-dimethyl-azetidin-3-yl)-(4-propyl-phenyl)-methanol]"
6,0.0595 µM,"CC(C)c1ccc([C@](O)(c2cncc(-c3nc(C(C)(C)O)n(C(C)C)n3)c2)C2(C)CN(C)C2)cc1 [Example 27, 2-(5-{5-[(R)-(1,3-Dimethyl-azetidin-3-yl)-hydroxy-(4-isopropyl-phenyl)-methyl]-pyridin-3-yl}-2-isopropyl-2H-[1,2,4]triazol-3-yl)-propan-2-ol]"
7,0.0811 µM,"CN1CC(C)([C@](O)(c2ccc(C(C)(C)C)cc2)c2cncc(-c3nc(C4CCOCC4)n(C4CC4)n3)c2)C1 [Example 2, (R)-(4-tert-Butyl-phenyl)-{5-[1-cyclopropyl-5-(tetrahydro-pyran-4-yl)-1H-[1,2,4]triazol-3-yl]-pyridin-3-yl}-(1,3-dimethyl-azetidin-3-yl)-methanol]"
8,0.0578 µM,"CC(C)c1ccc([C@](O)(c2cncc(-c3nc(C4CCOCC4)n(C4CCC4)n3)c2)C2(C)CN(C)C2)cc1 [Example 23, (R)-{5-[1-Cyclobutyl-5-(tetrahydro-pyran-4-yl)-1H-[1,2,4]triazol-3-yl]-pyridin-3-yl}-(1,3-dimethyl-azetidin-3-yl)-(4-isopropyl-phenyl)-methanol]"
9,0.0373 µM,"CC(C)c1ccc([C@](O)(c2cncc(-c3nc(C4CCOCC4)n(C4CCCC4)n3)c2)C2(C)CN(C)C2)cc1 [Example 20, (R)-{5-[1-Cyclopentyl-5-(tetrahydro-pyran-4-yl)-1H-[1,2,4]triazol-3-yl]-pyridin-3-yl}-(1,3-dimethyl-azetidin-3-yl)-(4-isopropyl-phenyl)-methanol]"
10,0.0611 µM,"CC(C)c1ccc([C@](O)(c2cncc(-c3nc(C45CC(CO)(C4)C5)n(C4CC4)n3)c2)C2(C)CN(C)C2)cc1 [Example 28, (R)-{5-[1-Cyclopropyl-5-(3-hydroxymethyl-bicyclo[1.1.1]pent-1-yl)-1H-[1,2,4]triazol-3-yl]-pyridin-3-yl}-(1,3-dimethyl-azetidin-3-yl)-(4-isopropyl-phenyl)-methanol]"
11,0.0816 µM,"CC(C)c1ccc([C@](O)(c2cncc(-c3nc(C4CCOCC4)n(CC(C)(F)F)n3)c2)C2(C)CN(C)C2)cc1 [Example 22, (R)-{5-[1-(2,2-Difluoro-propyl)-5-(tetrahydro-pyran-4-yl)-1H-[1,2,4]triazol-3-yl]-pyridin-3-yl}-(1,3-dimethyl-azetidin-3-yl)-(4-isopropyl-phenyl)-methanol]"
12,0.0498 µM,"CN1CC(C)([C@](O)(c2ccc(C3(C(F)(F)F)CC3)cc2)c2cncc(-c3nc(C4CCOCC4)n(C4CC4)n3)c2)C1 [Example 3, (R)-{5-[1-Cyclopropyl-5-(tetrahydro-pyran-4-yl)-1H-[1,2,4]triazol-3-yl]-pyridin-3-yl}-(1,3-dimethyl-azetidin-3-yl)-[4-(1-trifluoromethyl-cyclopropyl)-phenyl]-methanol]"

# Source: patent US20250042881A1, “CCR6 RECEPTOR MODULATORS” (Idorsia Pharmaceuticals Ltd, priority 2021, published 2025)
